The subject of experiment [1] is pNF-κB p65. Kind of experiment: Western blot of pNF-κB p65 in pig articular chondrocytes. Format: cell-based. The conditions noted are these: for protein levels of pNF-κB p65 after OSM stimulation: pig articular chondrocytes, 24 hours. The protocol: (§1) For standard western blot, treated and non-treated cells were lysed in RIPA Lysis and Extraction Buffer (Pierce, Rockford, IL) containing protease inhibitors (Pierce) followed by sonication with a 15-second pulse at a power output of 2 using the VirSonic 100 (SP Industries Company, Warminster, PA). Protein concentrations were determined by BCA protein assay (Pierce). Proteins were resolved with SDS-PAGE utilizing 4-15% Mini-PROTEAN TGX Precast Gels and transferred to Trans-Blot Turbo Transfer Packs with a 0.2-μm pore-size nitrocellulose membrane. The SDS-PAGE running buffer, 4-15% Mini-PROTEAN TGX Precast Gels, Trans-Blot Turbo Transfer Packs with a 0.2-μm pore-size nitrocellulose membrane was purchased from Biorad (Hercules, CA). Nitrocellulose membranes were blocked in 5% nonfat milk in 0.05% (v/v) Tween 20 (PBST) (Corning, Manassas, VA). Membranes were then incubated with primary antibodies p-gp130 Y814 (Evseenko lab, AbClonal), p-AKT (cat #4060, Cell Signaling), p-ERK 1/2 (cat #9106, Cell Signaling), p-Y416-SRC (cat #1246F, Novus Biologicals), p-gp130 (cat #1453R, Bioss USA) and p-NFκBp65 (cat #8242, Cell Signaling), and/or YAP1 (cat #4912, Cell Signaling). Histone H3 (cat #9515, Cell Signaling) was used as loading control. After washing in PBS containing 0.05% (v/v) Tween 20 (PBST), membranes were incubated with rabbit (cat #31460, Thermo Scientific) or mouse IgG-HRP (cat #31430, Thermo Scientific) secondary antibodies. After washing, membranes were developed with the Clarity Western ECL Blotting Substrate (Hercules, CA). Quantification of blots was performed using ImageJ 1.44 followed by Prism9 for analysis.

In experiment [2] the test system is ADAMTS4, ADAMTS5 and MMP13 transcription. Kind of experiment: qPCR of matrix-degrading genes in OSM-stimulated pig articular chondrocytes. Format: cell-based. The settings on record: 48 hours. The protocol: (§2) Quantitative Real-Time PCR. Power SYBR Green (Applied Biosystems) RT-PCR amplification and detection was performed using an Applied Biosystems Step One Plus Real-Time PCR machine. The comparative Ct method for relative quantification (2-ΔΔCt) was used to quantitate gene expression. TBP (TATA-box binding protein) was used for gene normalization and expressed relative to a calibrator (sample in each set with lowest expression). Q-PCR for was conducted using the following primers: human: TBP forward, 5′ GATGGACGTTCGGTTTAGG 3′ (SEQ ID NO:28); TBP reverse, 5′ AGCAGCACAGTACGAGCAA 3′ (SEQ ID NO:29), MMP13 forward, 5′ […] 3′(SEQ ID NO:30); MMP13 reverse, 5′ GAACCCCGCATCTTGGCTT 3′ (SEQ ID NO:31), ADAMTS5 forward 5′ […] 3′ (SEQ ID NO:32); ADAMTS5 reverse, 5′ […] 3′ (SEQ ID NO:33), ADAMTS4 forward 5′ […] 3′ (SEQ ID NO:34); ADAMTS4 reverse, 5′ […] 3′ (SEQ ID NO:35), Collagen II forward, 5′ […] 3′ (SEQ ID NO:36); Collagen II reverse 5′ […] 3′ (SEQ ID NO:37); Aggrecan forward, 5′ AGGCAGCGTGATCCTTACC 3′ (SEQ ID NO:38); Aggrecan reverse, 5′ […] 3′ (SEQ ID NO:39). Cells were treated with 10 ng/mL OSM and/or with 5 μM SRC (SU6656) inhibitor, 10 ng/mL OSM and/or 50 ng/mL WT/F814 plasmids; 10 ng/mL OSM and/or 100 or 300 ug/mL of peptide QQpYF (Evseenko lab, Thermo Scientific); 10 uM R805 and/or 10 ng/mL OSM.

Experiment [3] concerns the target T1, pSRC (Homo sapiens, UniProt P12931).
T1 construct: from tissue; host or cells: human synovium
Kind of experiment: Western blot of pSRC in human synovium stimulated with OSM. The conditions noted are these: with or without OSM, 24 hours. Format: cell-based. How it is done: as §1, with “After washing in PBS containing 0.05% (v/v) Tween 20 (PBST), membranes were incubated with rabbit (cat #31460, Thermo Scientific) or mouse IgG-HRP (cat #31430, Thermo Scientific) secondary antibodies. After washing, membranes were developed with the Clarity Western ECL Blotting Substrate (Hercules, CA).” left out

The test system of experiment [4] is pSRC. Kind of experiment: Western blot of pSRC in pig articular chondrocytes. It counts as cell-based. The settings on record: for protein levels of pSRC after OSM stimulation: pig articular chondrocytes, 4 and 24 hours. The protocol:
as §1
(§3) The studies delineate that gp130 Y814 regulates SRC downstream signaling; since SRC is known to associate with gp130, it was hypothesized that gp130 and SRC are capable of physically interacting on Y814 and hindering this interaction will prevent SRC from signaling. In order to impede this interaction, experiments were performed using an innovative peptide library screen with short and overlapping peptides mimicking the motif of gp130 around Y814 that were individually tested for pSRC downregulation; these peptides ranged from 4-15 amino acids. The peptides contained a protein sequence stretch of consecutive amino acids surrounding gp130 Y814 residue. To test their efficacy, pig articular chondrocytes were stimulated with or without OSM in presence or absence of the peptides followed by co-immunoprecipitation to determine interaction and western blot detecting pSRC activity. […] Due to sequence specificity, the peptide is capable of discriminating among other gp130 regions serving as a competitive inhibitor.

In experiment [5] the test system is pNF-kB p65. Kind of experiment: Western blot of pNF-kB p65 in human synovium stimulated with OSM. Format: cell-based. The conditions noted are these: with or without OSM, 24 hours. The protocol: as §1, with “After washing in PBS containing 0.05% (v/v) Tween 20 (PBST), membranes were incubated with rabbit (cat #31460, Thermo Scientific) or mouse IgG-HRP (cat #31430, Thermo Scientific) secondary antibodies. After washing, membranes were developed with the Clarity Western ECL Blotting Substrate (Hercules, CA).” left out

Experiment [6] relates to gp130 receptor signaling. The conditions noted are these: previous studies; cited from earlier work.
The test system of experiment [7] is adult and pig articular cartilage. The settings on record: cited from earlier work.
Experiment [8] deals with rat medial meniscectomy and cartilage surface injury models. The settings on record: cited from earlier work.
The test system of experiment [9] is gp130 and pSRC. Kind of experiment: Co-immunoprecipitation of complex formation between gp130 and pSRC in pig articular chondrocytes. Format: cell-based. The settings on record: pig articular chondrocytes with or without OSM, 4 and 24 hours. The protocol: IP Western, SDS-PAGE and Western blot analysis. For transfections of gp130 wild type (WT) (InVivoGen) and gp130 mutant plasmids (Thermo Scientific), cells were plated 24 h prior to transfection to produce monolayers that were 60% confluent and these were transfected by using Turbo DNAfectin 3000 (cat #G3000, Lambda Biotech) according to the manufacturer's protocol. 72h after transfection, cells were maintained in DMEM (10% FBS, 1% PSA) and were either left untreated or were stimulated with IL-6 (10 ng/mL) and/or OSM (10 ng/mL) for 24 h before cell harvest and protein extraction. For immunoprecipitation assays, cell lysates were incubated with Protein G Agarose (cat #20398, Pierce) and anti-Flag antibody (cat #2368, Cell Signaling) at 4° C. overnight. The immune complexes were sedimented, washed and separated by SDS-PAGE (see below) and further analyzed by Western blot using p-SRC (pY416-SRC) (cat #1246F, Novus Biologicals) or NEMO (cat #18474-1-AP, Proteintech) antibodies and normalized to gp130 (cat #bs-1459R, Bioss) or total SRC (cat #2123, Cell Signaling). For R805 treatment, the immune complexes were sedimented, washed and separated by SDS-PAGE and further analyzed by Western blot using OSMR (cat #ab85575, Abcam), LIFR (Santa cat #515337, Cruz Biotechnology) or p-SRC (pY416-SRC) (Novus Biologicals, cat #1246F). Histone H3 (cat #9715, Cell Signaling), gp130 (cat #bs-1459R, Bioss), total SRC (cat #2123, Cell Signaling) or Flag antibody (cat #14739, Cell Signaling) were used as loading controls.
as §3

Experiment [10] relates to ADAMTS4/5, MMP13, COL2 and ACAN transcription. Briefly: qPCR of catabolic and anabolic genes in human adult OA articular chondrocytes. It counts as cell-based. The conditions noted are these: 48 hours. How it is done:
as §2

Experiment [11] deals with cleaved ACAN and COL2 neoepitopes. Briefly: Neoepitope assay on pig articular cartilage explants stimulated with OSM. The settings on record: 72 hours, normalized to wet weight. Format: cell-based. How it is done:
Neoepitope analysis. WT and F814 mouse articular cartilage explants were treated with or without OSM (10 ng/mL). Pig articular cartilage explants were stimulated with or without OSM (10 ng/mL) and treated with or without peptide QQpYF (100 μg/mL or 300 μg/mL). For R805 treatment, pig articular cartilage explants were stimulated with or without OSM (10 ng/mL) and treated with or without R805 (0.01, 0.1, 1 or 10 μM). The explants were then digested for 2 hr at 37° C. with 0.01 units chondroitinase ABC (Sigma Aldrich, St. Louis, MO). Samples were then dialyzed with ultrapure water for 24 hr at 4° C., freeze dried, dissolved in RIPA Lysis and Extraction Buffer (Pierce, IL) containing protease inhibitors (Pierce) followed by sonication. Proteins were separated and analyzed by Western blot using primary antibodies against aggrecan (cat #NB100-74350, Novus Biologicals,) and collagen II neoepitopes (cat #50-1035, Ibex). Wet weight of explants was used as loading control.

Setting [12] is: pig articular chondrocytes treated with peptides for 24 hours, no OSM.

Here are results for four compounds from patent US20240182526A1, “COMPOSITIONS AND METHODS FOR MODULTING INFLAMMATORY AND DEGENERATIVE DISORDER” (University of Southern California, priority 2021, published 2024).

Entries after “also recorded” stand apart in the source; their conditions may differ. Where no end group is shown, it is not given here. [ ]: non-standard residue; d: D form. pY = N[C@@H](Cc1ccc(OP(=O)(O)O)cc1)C(=O)O

As for `CN(C)S(=O)(=O)c1ccc2c(c1)/C(=C/c1cc3c([nH]1)CCCC3)C(=O)N2` [SU6656, reference compound], the “protein levels of pNF-κB p65 after OSM stimulation” value in experiment [1] is given as “can be blocked by SRC inhibition”. Moreover, in [2], the “OSM-induced transcription of matrix-degrading genes (ADAMTS4, ADAMTS5, MMP13), qPCR” value is listed as “can be blocked by SRC inhibition”.

Consider PRQQ[pY]FKQ [Peptide 5], for which, in experiment [3], the “protein levels of pSRC” value is “inhibits SRC and NF-kB protein expression”. Further, the “endogenous protein levels of phosphorylated c-SRC (pSRC)” value in [4] (setting [12]) is “inhibits endogenous SRC and NF-kB protein expression”. Also, in experiment [1] (setting [12]), the “endogenous protein levels of NF-kB p65” value was “inhibits endogenous SRC and NF-kB protein expression”. Besides, the “protein levels of pNF-kB p65” value in experiment [5] was “inhibits SRC and NF-kB protein expression”.

Take `Brc1ccc(Nc2nc(-c3ccccc3)cs2)cc1` [RCGD 423]: in [6], the “STAT3 signaling and downstream MYC” value is “highly activate STAT3 signaling and its downstream target, proto-oncogene MYC”; the “activation of MAPK/ERK and NF-κB pathways” value is “prevents activation of MAPK/ERK and NF-κB pathways”. Besides, the articular cartilage degeneration result in experiment [7] was “protects adult and pig articular cartilage from degeneration”. Besides, the cartilage regeneration result in experiment [8] is recorded as “promotes cartilage regeneration”.

As to “QQ(PY)F (QQYF) [Peptide P2A, 4 amino acid SRC-targeting interfering peptide, Gln-Gln-phosphoTyr-Phe]”, the “complex formation between gp130 and pSRC (gp130-SRC interaction)” value was “most efficacious at physically hindering gp130-SRC protein-protein interaction” in experiment [9]; “most efficacious at physically hindering gp130-SRC protein-protein interaction” in [9] (listed as QQ[pY]F); “prevents physical interaction of gp130 and SRC” in experiment [9] (listed as QQpYF). The figures for the “biosynthesis (COL2 and ACAN transcription), qPCR” value in [10] and in experiment [10] (listed as QQpYF) were “promotes biosynthesis” and “increased”, respectively. Also, the “transcription of catabolic enzymes (ADAMTS4/5 and MMP13), qPCR” value in experiment [10] was “decreased transcription of catabolic enzymes; also recorded: inhibits transcription of matrix degrading genes”; in [10] (listed as QQpYF), “markedly lower”. Besides, the “protein levels of pSRC after OSM stimulation” value was “decreasing SRC and NF-κB activation; also recorded: significant effect on decreasing SRC and NF-κB signaling; also recorded: inhibits SRC activity” in [4]; “decreasing pSRC activation” in experiment [4] (listed as QQ[pY]F); “inhibits activation of SRC downstream of gp130” in experiment [4] (listed as QQpYF). The “matrix degeneration: levels of cleaved ACAN and COL2 neoepitopes” value in [11] was “prevented matrix degeneration in pig cartilage explants; also recorded: sustained prevention of catabolism; also recorded: prevents degeneration in pig cartilage explants; also recorded: dose dependent”; in experiment [11] (listed as QQpYF), “decrease of aggrecanase and collagenase activity”. Moreover, the “protein levels of pNF-κB p65 after OSM stimulation” value in experiment [1] is “decreasing SRC and NF-κB activation; also recorded: significant effect on decreasing SRC and NF-κB signaling”.
